For one data set, the system named is nude mice. Kind of data set: Acute toxicity after intravenous injection in nude mice. It is filed as in vivo. Here is the method: (§1) In order to prepare the acetoxymethyl quarternary salt of Compound 1101, 1.0 g Compound 1101 was dissolved in 10 ml dry acetonitrile in a glass vial, and 1.0 g bromomethyl acetate (2.0 equivalents) was added and allowed to stir at room temperature overnight. LCMS indicated presence of starting material, so the reaction was heated at 65° C. in an oil bath for 8 hours. The mother liquors were decanted from the solid and the solids washed with a small amount of cold acetonitrile. The solid was dried in a vacuum dessicator overnight. The product was identified as 264 mg of a white solid with a retention time of 2.204 minutes, M+=380 which was 97% pure. […] Additionally, 250 uL of this 32.5 mM solution of compound A040-70 was administered to a nude mouse by oral gavage.
Intravenously administered Compound 1 was determined to have a 100% mortality within 5 minutes of administration in three nude mice at a dose level of 16 mg/kg.

The test system of data set [1] is EDC-CBF1 endothelial cells. Put plainly: Tube formation of EDC-CBF1 endothelial cells on Matrigel. In kind it is cell-based. As to conditions: overnight.
Protocol: In this example it was determined to what degree PI 3 kinase inhibitors (including targeted PI3 kinase inhibitor prodrugs) could inhibit tube formation. Matrigel was plated into 12-well plate wells and solidified in 37° C. for 2 hours. 1×10^5 EDC-CBF1 endothelial cells were then put on the top of the Matrigel layer in the presence of PBS, RADfV (cyclic negative control peptide), RGDfV (cyclic positive control peptide), RADS (linear negative control peptide), compound 1, or Compound 1126 at 20° M concentration overnight. Pictures were then taken using a microscope.
Data set [2] deals with p53 transcriptional activity. Kind of data set: p53 luciferase (transcriptional activity) in HBECs. As to conditions: for induction of p53 luciferase activity versus control: HBECs, Compound 1: 6 hour exposure. It is filed as cell-based. The text has this: This experiment tested the effect of PI 3 kinase inhibitors (Compound 1 and the targeted prodrug version of Compound 1; Compound 1126) on the induction of p53 luciferase activity. The transfection procedure was similar to that described in the literature to monitor p53 transcription.

The test system of data set [3] is J774 macrophages. Kind of data set: Phagocytosis of sensitized sRBCs in J774 macrophages (class I PI-3 kinase-dependent pathway). It is filed as cell-based.
The subject of data set [4] is J774 macrophages. The data set is described as above. In kind it is cell-based. Conditions: for phagocytic index (PGI): 5 μM. The procedure:
The columns indicate phagocytic index or percentage of cells positive for phagocytic response. The phagocytic index is the number of sRBC's (sheep red blood cells) found per 100 J774 cells and the % of phagocytic cells is the % of J774 cells that have phagocytized at least 1 sRBC. The error bars represent standard deviation of mean.
The bioactivity of LY294002 (Compound 1) was determined by assaying phagocytosis in J774 macrophages, which is a class I PI-3 kinase-dependent pathway. Briefly, […] DMSO control for 1 h in DMEM with 10% FCS and then sensitized sRBCs (sheep red blood cells) was added at a target to effector ratio equal to 100:[…] Cells were exposed to hypotonic shock to remove red blood cells and phagocytosis was determined by measurement of hemoglobin concentration in the cell lysates. […]

Data set [5] is described as follows: Reversibility of prodrugs to compound 1 in aqueous phosphate buffer (LC-MS over time). As to conditions: for half-life: phosphate buffer.
Protocol: Prodrug Compounds were dissolved in water or in DMSO (if not freely soluble in water) and then diluted at least 10-fold into 50 mM phosphate buffer at pH=7.4 or pH=4.8 and allowed to stand at room temperature. The final concentration of the compounds in aqueous environment ranged from 50 to 500 uMolar.
Data set [6] relates to human non-small cell lung cancer cells: H1299. Put plainly: H1299 non-small cell lung cancer xenograft in nude mice. It is filed as in vivo. Here is the method:
Male nude mice of 4-6 weeks in age weighing around 30 grams were inoculated subcutaneously in the right flank with 5 million tumor cells (human non-small cell lung cancer cells: H1299) on day 0. After 14 days of allowing the tumors to grow the animals were divided into 3 groups of 5 animals each. One group received vehicle control alone. One group received twice-per-day tail vein injections (i.v) of 50 uL volume of 24.4 millimolar solution of Compound 1126 in phosphate buffered saline corresponding to 25 mg/kg/day dosing level of the active component of the prodrug (i.e. compound 1). The last group received twice-per-day tail vein injections (i.v) of 50 uL volume of 4.9 millimolar solution of Compound 1126 in phosphate buffered saline corresponding to 5 mg/kg/day dosing level of the active component of the prodrug (compound 1). The tumors were measured every three days using calipers to determine the tumor volume and the animals weights were recorded when the animals were sacrificed on day 27. The results are shown in Table 7 and indicate strong tumor volume reduction versus control for both dose levels at the first datapoint only 3 days after treatment (Day 17) and continuing through to the end of the study: […]

In data set [7] the test system is human brain cancer cell line (U87MG). Kind of data set: U87MG brain cancer xenograft model. It is filed as in vivo. As to conditions: 25 mg/kg/day; for % Tumor Volume Reduction compared to vehicle only control: treatment from day 7, U87MG xenograft. The procedure:
Male nude mice of 4-6 weeks in age weighing around 30 grams were inoculated subcutaneously in the right flank with 5 million tumor cells (human non-small cell lung cancer cells: H1299) on day 0. After 14 days of allowing the tumors to grow the animals were divided into 3 groups of 5 animals each. One group received vehicle control alone. One group received twice-per-day tail vein injections (i.v) of 50 uL volume of 24.4 millimolar solution of Compound 1126 in phosphate buffered saline corresponding to 25 mg/kg/day dosing level of the active component of the prodrug (i.e. compound 1). The last group received twice-per-day tail vein injections (i.v) of 50 uL volume of 4.9 millimolar solution of Compound 1126 in phosphate buffered saline corresponding to 5 mg/kg/day dosing level of the active component of the prodrug (compound 1). The tumors were measured every three days using calipers to determine the tumor volume and the animals weights were recorded when the animals were sacrificed on day 27. The results are shown in Table 7 and indicate strong tumor volume reduction versus control for both dose levels at the first datapoint only 3 days after treatment (Day 17) and continuing through to the end of the study:
An animal study was run as described in Example above except using a human brain cancer cell line (U87MG) and with treatment starting on day 7 such that the first tumor volume measurement occurred on day 10.

Data set [8] can be described thus: Water solubility / solution in phosphate buffered saline. In kind it is physicochemical. Here is the method:
as §1

The conditions of data set [9]: portion not accumulated in the skeleton; cited from earlier work.
Setting [10] is: 20 uM, exposure-limited: 20 minute exposure then removal of test solution, solvent blank 163.

Peptide text beside a SMILES is read from it. * marks the point of attachment. X1 = O=C(CCC(=O)*)OC[N+]1(c2cc(=O)c3cccc(-c4ccccc4)c3o2)CCOCC1

For the compound “2-(4-morpholinyl)-8-phenyl-4H-1-benzopyran-4-one [Compound 1]”, in the data set with nude mice (mice, injection of 1.04 uMoles), the “observed effects after injection” value is given as “immediate death in three out of three mice”.

In the case of `O=c1cc(N2CCOCC2)oc2c(-c3ccccc3)cccc12` [Compound 1, 2-(4-morpholinyl)-8-phenyl-4H-1-benzopyran-4-one], in data set [1], the “tube formation compared with PBS control” value is “significantly less”. The mortality in the data set on nude mice (nude, mouse, in vivo, iv, 16 mg/kg, 5 min) came out at 100%. In data set [2], the “induction of p53 luciferase activity versus control” value is reported as “more than two fold higher”. Moreover, the “phagocytic index (PGI)” value in the data set with J774 macrophages [3] (setting [10]) was 190. Also, the blocking of phagocytosis entry with J774 macrophages [4] (LY294002 at 10, 1 and 0.1 μM for 1 h, J774 cells) is “significantly blocked phagocytosis at all concentrations in a dose dependent manner”.

Regarding `CC(C)(C)OC(=O)CCC(=O)OC[N+]1(c2cc(=O)c3cccc(-c4ccccc4)c3o2)CCOCC1` [Compound 1110], the half-life in data set [5] (pH 4.8) is above 120 h; in [5] (pH 7.4), around 10 h.

As for `N=C(N)NCCCC(NC(=O)CCC(=O)OC[N+]1(c2cc(=O)c3cccc(-c4ccccc4)c3o2)CCOCC1)C(=O)NCC(=O)NC(CC(=O)O)C(=O)NC(CO)C(=O)O` (centres unmarked) [Compound 1126] (X1-RGDS-OH; configuration not given here), the “tube formation compared with PBS control” value in [1] is reported as “significantly less”. In the data set with nude mice (intravenous, 22 mg/kg, three nude mice, after 1 hour of observation), this compound displayed a mortality of 0%. Further, the “induction of p53 luciferase activity versus control” value in [2] is on record as around 3 fold. Besides, the “% Tumor Volume Reduction compared to vehicle only control” value came to 29% in data set [6] (5 mg/kg/day i.v. twice per day from day 14, H1299, Day 17); 50% in [6] (5 mg/kg/day i.v. twice per day from day 14, H1299, Day 20); 44% in data set [6] (5 mg/kg/day i.v. twice per day from day 14, H1299, Day 24); 35% in data set [6] (5 mg/kg/day i.v. twice per day from day 14, H1299, Day 27); 35% in data set [6] (25 mg/kg/day i.v. twice per day from day 14, H1299, Day 17); 66% in [6] (25 mg/kg/day i.v. twice per day from day 14, H1299, Day 20). The “% Tumor Volume Reduction compared to vehicle only control” value is 68% in data set [6] (25 mg/kg/day i.v. twice per day from day 14, H1299, Day 24); 68% in [6] (25 mg/kg/day i.v. twice per day from day 14, H1299, Day 27); 20.2% in data set [7] (Day 10); 52.6% in data set [7] (Day 14); 38.5% in [7] (Day 17); 35.2% in data set [7] (Day 21). The “animal body weights, control group versus the two treatment groups” value in data set [6] (day 27, 25 and 5 mg/kg/day i.v., nude mice) is “lack of statistically significant difference”. Further, the “tolerability of twice per day doses” value in data set [6] (two week administration period, 25 and 5 mg/kg/day i.v., nude mice) was “well tolerated”. The “phagocytic index (PGI)” value in the data set with J774 macrophages [3] (1 uM, 20 minute incubation, removal, then 2 hours for phagocytosis, 0 uM gave 213) was determined as 206; in the data set on J774 macrophages [3] (3 uM, 20 minute incubation, removal, then 2 hours for phagocytosis, 0 uM gave 213), 143; in the data set with J774 macrophages [3] (10 uM, 20 minute incubation, removal, then 2 hours for phagocytosis, 0 uM gave 213), 33; with J774 macrophages [3] (setting [10]), 50; in the data set with J774 macrophages [4] (aqueous pH=7 incubation time 2 hours) it was 88; in the data set on J774 macrophages [4] (aqueous pH=7 incubation time 5 hours), 78. Moreover, the “phagocytic index (PGI)” value in the data set with J774 macrophages [4] (aqueous pH=7 incubation time 10 hours) came to 37; in the data set with J774 macrophages [4] (time zero with no preincubation), 140. For the same compound, in [7], the “toxicity in U87MG xenograft study” value is “desirable lack of toxicity”.

In the case of `CN1CC(=O)N(c2ccc(C(=O)OC[N+]3(c4cc(=O)c5cccc(-c6ccccc6)c5o4)CCOCC3)cc2)C1=S` [Compound A017-59], in data set [5] (phosphate buffer at pH=7.4, over a 17 hour period), the “conversion back to compound 1” value is “significant amounts of this compound converted back to compound 1”.

Regarding `COCCOCCOCCOCCC(=O)OC[N+]1(c2cc(=O)c3cccc(-c4ccccc4)c3o2)CCOCC1` [Compound A027-85], the half-life in data set [5] (pH 7.4) is around 3 h.

On to `CC(=O)OC[N+]1(c2cc(=O)c3cccc(-c4ccccc4)c3o2)CCOCC1` [Compound A040-70], for which the half-life in data set [5] (pH 7.4) is around 10 h. In [8], the water solubility result is given as “very high water solubility”. In addition, in [8] (27 mg in 1.865 mL PBS, resulting pH around 4), the “concentration of solution prepared in phosphate buffered saline” value is given as 32.5 millimolar.

`O=C(CCC(=O)OC[N+]1(c2cc(=O)c3cccc(-c4ccccc4)c3o2)CCOCC1)NCc1ccc(C(=O)NCCN(CCN(CP(=O)(O)O)CP(=O)(O)O)CCN(CP(=O)(O)O)CP(=O)(O)O)cc1` [Compound A046-89P]: in data set [5] (after 24 hours standing at pH=7.0, phosphate buffer), the “conversion back to compound 1” value is reported as “converted completely back to compound 1”.

On to `O=P([O-])(O)CN(CCN(CP(=O)([O-])O)CP(=O)(O)O)CP(=O)([O-])O.[153Sm+3]` [^153Sm-EDTMP], for which the “time after administration at which excretion is almost complete” value in [9] is at most 6 h.

Turning to `Cc1ccc(C(=O)Cn2c3c(sc2=N)CCCC3)cc1` [pifithrin alpha], in data set [2] (20 uM concentration), the “effect on induction of p53 function by Compound 1 and Compound 1126” value is “abrogated”.

For the compound “arg-gly-asp-ser [RGDS, reference compound]”, the “tube formation compared with PBS control” value in data set [1] is “not much difference”. For the same compound, the “phagocytic index (PGI)” value in the data set with J774 macrophages [3] (setting [10]) stood at 170.

These data come from patent US7662977B2, “PI-3 kinase inhibitor prodrugs” (Semafore Pharmaceuticals, Inc., priority 2003, dated 2010).
